In patent US9962430B2, “Methods for treating pain associated with chronic pancreatitis” (priority 2012, dated 2018):

Legend:
patients with CP = conditions: cited from earlier work
[1] = tested on: patients with type B pain from chronic pancreatitis; assay: Phase II dose-escalation trial: daily opioid use converted to morphine equivalents; format: in vivo, human; conditions: for daily opioid usage (oral morphine equivalents): baseline 136 mg
[2] = tested on: patients with type B pain from chronic pancreatitis; assay: Phase II dose-escalation trial: quality of life by SF-36 score; format: in vivo, human; conditions: for mean SF-36 score: baseline 101.3
[3] = tested on: patients with type B pain from chronic pancreatitis; assay: Phase II dose-escalation trial: 10 point visual analogue scale (VAS) pain assessment; format: in vivo, human; conditions: for mean pain score (VAS): all patients, baseline mean VAS 5.79; for Pain (VAS 0-10), mean: 100 min post dose, baseline 6.04
[4] = 800 CU (160 mcg) twice daily for seven days, drug administration arm

In the case of “depot secretin: subcutaneous depot secretin, 800 CU (160 mcg) twice daily, Tympner and Rosch 1986”, the serum amylase levels (patients with CP; 800 CU (160 mcg) twice daily for seven days) is listed as “strong trend towards decreased”, the lactoferrin (patients with CP; [4]) is listed as “decreased” and the trypsin (patients with CP; [4]) is listed as “decreased”. For the same substance, the “viscosity of pancreatic secretion” value (patients with CP; [4]) was “decreased” and the “pain levels at the end of the study” value (patients with CP; 800 CU (160 mcg) twice daily injection for seven days, p<0.05) was “significantly improved”.

In the case of “sHS: ChiRhoStim (human secretin for injection) provided by ChiRhoClin Inc.; 27 amino acid gastrointestinal peptide hormone”, the “daily opioid equivalent, females” value ([1]; Day 30, females, baseline 107 mg, p=0.53) is reported as 84 mg, the “daily opioid usage (oral morphine equivalents)” value ([1]; day 4 post-therapy, p=0.52) is reported as 111 mg and the “daily opioid usage (oral morphine equivalents)” value ([1]; day 30 post-therapy, p=0.34) is reported as 104 mg. The “mean SF-36 score” value ([2]; day 4) was 100.9, the “mean SF-36 score” value ([2]; day 30) was 101.5 and the “quality of life as measured by SF-36 with therapy” value ([2]; overall statement) was “unaltered”. The “mean pain (VAS), female subgroup” value ([3]; day 30, females, baseline 5.42, p=0.07) was 3.67, the “optimal dosing based on the change in the VAS score” value ([3]; dose-escalation 0.05-0.8 mcg/kg IV bolus) was 0.4 µg/kg and the “mean pain score (VAS)” value ([3]; post-treatment day 4, p=0.25 vs baseline, IV bolus 3x/day for 3 days) was 4.80. For the same substance, the “mean pain score (VAS)” value ([3]; post-treatment day 10, p=0.19 vs baseline) was 4.72, the “mean pain score (VAS)” value ([3]; post-treatment day 30, p=0.27 vs baseline) was 4.90 and the “Pain (VAS 0-10), mean” value ([3]; sHS dose 0.05 μg/kg) was 4.92. The “Pain (VAS 0-10), mean” value ([3]; sHS dose 0.1 μg/kg) was 5.06, the “Pain (VAS 0-10), mean” value ([3]; sHS dose 0.2 μg/kg) was 4.92 and the “Pain (VAS 0-10), mean” value ([3]; sHS dose 0.4 μg/kg) was 4.5. The “Pain (VAS 0-10), mean” value ([3]; sHS dose 0.8 μg/kg) was 5.36.
